Activity calls are given as the source filed them. No cut-off for these calls is given here.
How the values were obtained:
[1] = Cytotoxicity against mouse RAW264.7 cells assessed as cell viability at 5 uM after 48 hrs by MTT assay relative to control; assay type: cell-based; details: read-out: Activity
[2] = species: Danio rerio; test: Antiinflammatory activity in cut-tail neutrophil/macrophage double transgenic zebra fish larvae assessed as cut-tail-induced reduction in neutrophil level in wound site at 10 uM after 3 to 9 hrs by fluorescence microscopic analysis relative to control; assay type: functional, organism-based
[3] = tested on: RAW264.7; test: Antiinflammatory activity against mouse LPS-induced RAW264.7 cells assessed as inhibition of TNFalpha production at 5 uM after 24 hrs by cytokine enzyme-linked immunosorbent assay relative to control; assay type: functional; details: RAW264.7, 24 h
[4] = tested on: RAW264.7; test: Antiinflammatory activity against mouse RAW264.7 cells assessed as inhibition of LPS-induced NO release at 5 uM after 24 hrs by Griess assay relative to control; assay type: functional; details: RAW264.7, 24 h
[5] = tested on: RAW264.7; test: Antiinflammatory activity against mouse RAW264.7 cells assessed as inhibition of LPS-induced NO release after 24 hrs by Griess assay relative to control; assay type: functional, cell-based
[6] = Cytotoxicity against mouse RAW264.7 cells assessed as cell viability at 10 uM after 48 hrs by MTT assay relative to control; assay type: cell-based; details: read-out: Activity
[7] = tested on: RAW264.7; test: Inhibition of LPS stimulated iNOS expression in mouse RAW264.7 cells preincubated for 2 hrs followed by LPS stimulation for 6 hrs by Western blot analysis; assay type: functional, cell-based
[8] = species: Danio rerio; test: Antiinflammatory activity in cut-tail neutrophil/macrophage double transgenic zebra fish larvae assessed as cut-tail-induced migration of primitive macrophages at 10 uM after 3 to 6 hrs by fluorescence microscopic analysis relative to control; assay type: functional, organism-based
[9] = tested on: RAW264.7; test: Antiinflammatory activity against mouse LPS-induced RAW264.7 cells assessed as inhibition of IL-6 production at 5 uM after 24 hrs by cytokine enzyme-linked immunosorbent assay relative to control; assay type: functional, cell-based
[10] = target: T1, NF-kappa-B inhibitor alpha (Mus musculus) (UniProt Q9Z1E3); test: Inhibition of LPS stimulated IkappaBaplha phosphorylation in mouse RAW264.7 cells preincubated for 2 hrs followed by LPS stimulation for 6 hrs by Western blot analysis; assay type: cell-based
T1 sequence (whole entry): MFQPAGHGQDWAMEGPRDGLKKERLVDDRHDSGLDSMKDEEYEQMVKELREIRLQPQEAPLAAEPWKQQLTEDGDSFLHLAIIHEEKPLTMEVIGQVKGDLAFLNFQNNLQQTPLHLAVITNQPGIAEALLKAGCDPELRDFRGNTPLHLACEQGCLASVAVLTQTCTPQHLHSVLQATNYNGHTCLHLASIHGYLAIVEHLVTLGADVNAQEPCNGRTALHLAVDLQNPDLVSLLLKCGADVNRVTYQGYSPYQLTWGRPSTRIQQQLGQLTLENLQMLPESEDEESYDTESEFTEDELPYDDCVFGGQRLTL

[11] = species: Danio rerio; test: Antiinflammatory activity in cut-tail neutrophil/macrophage double transgenic zebra fish larvae assessed as cut-tail-induced reduction in migration of primitive macrophages at 10 uM after 9 hrs by fluorescence microscopic analysis relative to control; assay type: functional, organism-based

SMILES	viability at 48 h, 5 µM [1] [%]	inhibition at 5 µM [4] [%]	viability at 48 h, 10 µM [6] [%]	other results
COc1ccc2cc3[n+](cc2c1OC(=O)N(C)C1CCCCC1)CCc1cc2c(cc1-3)OCO2	99.3	70.3	83.2	Activity [2]: Active; inhibition at 5 µM [3]: 70%; inhibition [5]: Dose-dependent effect; inhibition [7]: Dose-dependent effect; Activity [8]: inactive; inhibition [9]: Active; inhibition [10]: Dose-dependent effect; Activity [11]: Active
COc1ccc2cc3[n+](cc2c1OC(=O)N1CCN(c2ccccn2)CC1)CCc1cc2c(cc1-3)OCO2	103	12.9	109	–
COc1ccc2cc3[n+](cc2c1OCCCN1CCN(c2ccncc2)CC1)CCc1cc2c(cc1-3)OCO2	103	30.2	100	Activity [2]: Active; inhibition at 5 µM [3]: 90%; inhibition [5]: Dose-dependent effect; inhibition [7]: Dose-dependent effect; Activity [8]: inactive; inhibition [9]: Active; inhibition [10]: Dose-dependent effect; Activity [11]: Active
COc1ccc2cc3[n+](cc2c1OC(=O)N1CCSCC1)CCc1cc2c(cc1-3)OCO2	96	–	109	–
CCOC(=O)N1CCN(CCCOc2c(OC)ccc3cc4[n+](cc23)CCc2cc3c(cc2-4)OCO3)CC1	103	–	99.1	–
COc1ccc2c(c1)c(CC(=O)O)c(C)n2C(=O)c1ccc(Cl)cc1 [INDOMETHACIN]	99.8	20.8	99.6	–
CCOC(=O)N1CCN(C(=O)Oc2c(OC)ccc3cc4[n+](cc23)CCc2cc3c(cc2-4)OCO3)CC1	97.9	9.7	99.6	–
CCOC(=O)C1CCN(CCCOc2c(OC)ccc3cc4[n+](cc23)CCc2cc3c(cc2-4)OCO3)CC1	98.5	–	99.5	–
C=CCN(CC=C)C(=O)Oc1c(OC)ccc2cc3[n+](cc12)CCc1cc2c(cc1-3)OCO2	100	–	92.2	–
COc1ccc2cc3[n+](cc2c1OC(=O)N1CCC(N2CCCCC2)CC1)CCc1cc2c(cc1-3)OCO2	98.1	–	100	–
COc1ccc2cc3[n+](cc2c1OC(=O)N1CCC(Cc2ccccc2)CC1)CCc1cc2c(cc1-3)OCO2	97.6	–	87.9	–
COc1ccc2cc3[n+](cc2c1OC)CCc1cc2c(cc1-3)OCO2 [BERBERINE CHLORIDE]	99.4	21.1	97.2	–
CCCN(CCC)C(=O)Oc1c(OC)ccc2cc3[n+](cc12)CCc1cc2c(cc1-3)OCO2	101	–	93.9	–
COc1ccc2cc3[n+](cc2c1OC(=O)N1CCC(N2CCN(C)CC2)CC1)CCc1cc2c(cc1-3)OCO2	101	–	104	–
COc1ccc2cc3[n+](cc2c1OC(=O)N1CCN(C2CCN(C)CC2)CC1)CCc1cc2c(cc1-3)OCO2	107	–	102	–
COc1ccc2cc3[n+](cc2c1OC(=O)N1CCOCC1)CCc1cc2c(cc1-3)OCO2	105	–	96	–
COc1ccc2cc3[n+](cc2c1OC(=O)N1CCN(c2ncccn2)CC1)CCc1cc2c(cc1-3)OCO2	102	–	97.6	–

Source: ChEMBL document CHEMBL3804798, “Design, synthesis and anti-inflammatory effects of novel 9-O-substituted-berberine derivatives” (Medchemcomm, 2016)
